Measured values from patent publication US10669266B2, “Oxadiazole inhibitors of HIPK2 for treating kidney fibrosis” (ICAHN SCHOOL OF MEDICINE AT MOUNT SINAI, priority 2017, dated 2020).

Test system: Smad3-responsive luciferase reporter (SBE4-Luc)
Description: Human primary tubular cells (PromoCell GmbH, Heidelberg, Germany) were cultured in Renal Epithelial Cell Growth Medium-2 (Promocell GmbH) with supplements according to manufacturer's protocol human primary renal tubular epithelial cells with <5 passages were used for all studies. For HIV infection of hRTECs, pNL4-3:ΔG/P-EGFP, a gag/poi-deleted HIV-1 construct that contains EGFP in the gag open reading frame, and pHR-IRES-EGFP, a control EGFP construct, were used to generate the VSV-G pseudotyped virus. Cells were infected with HIV pseudotyped virus or control virus for 2 days before the treatment with test compound.
Renilla luciferase reporter plasmid (pRL) was purchased from Promega.
Forty-eight hours post-transfection cells were treated with assigned concentrations of test compound together with or without 10 ng/ml TGF-β1 for 16 hours. Luciferase activities were measured using the Dual-Luciferase Reporter Assay kit (Promega, #E1910). Data are expressed as the ratio of firefly luciferase activity over Renilla luciferase activity. […] 48 hours after transfection, luciferase activities were measured.

Row | SMILES | Luciferase Activity (Relative to DMSO control) −TGFβ
1 | CCOC(=O)c1ccc(-c2noc(-c3cnc4cc(Cl)ccc4c3)n2)cc1 [Example 2] | 0.660
2 | COc1ccc2cc(-c3nc(-c4ccc(B5OC(C)(C)C(C)(C)O5)cc4)no3)cnc2c1 [Example 3, 5-(7-methoxyquinolin-3-yl)-3-(4-(4,4,5,5-tetramethyl-1,3,2-dioxaborolan-2-yl)phenyl)-1,2,4-oxadiazole] | 0.730
3 | COc1ccc2cc(-c3nc(-c4ccc([B-](F)(F)F)cc4)no3)cnc2c1 [Example 4] | 0.366
4 | CCOC(=O)c1ccc(-c2noc(-c3cnc4cc(Br)ccc4c3)n2)cc1 [Example 5, ethyl 4-(5-(7-bromoquinolin-3-yl)-1,2,4-oxadiazol-3-yl)benzoate] | 0.512
5 | CC1(C)OB(c2ccc3cc(-c4nc(-c5ccc(C(=O)O)cc5)no4)cnc3c2)OC1(C)C [Example 6, 4-(5-(7-(4,4,5,5-tetramethyl-1,3,2-dioxaborolan-2-yl)quinolin-3-yl)-1,2,4-oxadiazol-3-yl)benzoic acid] | 0.722
6 | COc1ccc2cc(-c3nc(-c4cccc(Br)n4)no3)cnc2c1 [Example 7] | 0.784
7 | CCOC(=O)c1ccc(-c2noc(-c3cnc4cc(B5OC(C)(C)C(C)(C)O5)ccc4c3)n2)cc1 [Example 8, ethyl 4-(5-(7-(4,4,5,5-tetramethyl-1,3,2-dioxaborolan-2-yl)quinolin-3-yl)-1,2,4-oxadiazol-3-yl)benzoate] | 0.818
